Laboratory results from patent US6875884B1, “Urea derivatives as inhibitors for CCR-3 receptor” (Kirin Beer Kabushiki Kaisha, priority 1999, dated 2005).

Assays:
CCR-3 = target: T1, CCR-3 (Homo sapiens, UniProt P51677); test: Inhibition of eotaxin-induced intracellular calcium mobilization in CCR-3 transfectant cells (CCR3/HEK293); assay type: cell-based; parameters: expressed in transfected cells; settings: compound 6.25 μg/ml, eotaxin 10 nM
T1 sequence (P51677 1-355): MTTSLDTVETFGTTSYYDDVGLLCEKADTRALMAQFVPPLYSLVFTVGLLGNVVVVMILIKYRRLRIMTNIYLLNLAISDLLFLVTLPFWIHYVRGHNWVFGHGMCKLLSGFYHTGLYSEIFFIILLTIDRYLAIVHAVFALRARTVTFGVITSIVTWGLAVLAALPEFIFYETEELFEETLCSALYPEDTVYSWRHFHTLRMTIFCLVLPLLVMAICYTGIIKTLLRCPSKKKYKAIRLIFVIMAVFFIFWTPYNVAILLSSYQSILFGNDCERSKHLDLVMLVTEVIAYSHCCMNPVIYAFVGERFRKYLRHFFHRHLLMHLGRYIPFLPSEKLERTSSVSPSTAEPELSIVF
Description: Compounds 93-162 used in this assay were synthesized by using the method described in Example 6, and Compounds 168-170 were synthesized by using the method described in Example 6 except for the use of isothiocyanates instead of isocyanates in step 6.
CCR-3 transfectant cells (CCR3/HEK293) were isolated and resuspended with assay buffer (20 mM HEPES, 125 mM NaCl, 5 mM KCl, 0.5 mM glucose, 1 mM CaCl2, 1 mM MgCl2, 0.1% BSA). After washing CCR3/HEK293 cells with assay buffer, cells were loaded with Fura-2/AM in assay buffer for 1 hour at room temperature. Cells were washed and resuspended with assay buffer at 5×10^6 cells/ml in assay buffer, and placed in a tissue culture plate (Falcon, no. 3296). Test compounds dissolved in DMSO were added to the wells, followed by eotaxin (10 nM at final concentration). Cells were excited at 340 nm and 380 nm in a fluorimeter (ARGUS50,FDSS2000, Hamamatsu Photonics) and the relative ratio of the fluorescence emitted at 510 nm was recorded. For a control, DMSO without a test compound was added. Intracellular calcium mobilization was calculated as described in Krogel C. et al., FEBS Let. (1989) 243, 41-46.

[1] = system: collagen-induced arthritis; test: Type II collagen-induced arthritis in mice, clinical score; assay type: in vivo; settings: male DBA/1 mice, 20 mg/kg per day subcutaneously starting at 2nd immunization, versus control vehicle
[2] = system: bronchoconstriction provoked by acetylcholine; test: Airway hyperreactivity: bronchoconstriction provoked by acetylcholine (murine asthma model); assay type: in vivo; settings: OVA-immunized male BALB/c mice, intraperitoneally for 9 days, FIG. 2A
Description: (§1) Male BALB/c mice were immunized by an intraperitoneal injection of 10 μg OVA adsorbed to 1 mg aluminum hydroxide gel (alum). A booster injection of the same dose of alum-adsorbed OVA was given 5 days later. Unimmunized control mice received saline.
(§2) Twelve days after primary immunization, both the immunized and unimmunized mice were exposed to aerosolized antigen. Aerosolization of OVA was performed using a nose-only aerosol chamber adapted for mice. Animals were exposed for 10 minutes to 5 mg/ml OVA aerosolized by an ultrasonic nebulizer (NE-U12, Omron, Tokyo, Japan) driven by a vacuum pump. The antigen bronchoprovocation was repeated on day 16 and day 20 under the same conditions. Compound No. 298 (CPD No. 298) was dissolved in saline containing 2% DMSO and 2% Cremophore and administered intraperitoneally for 9 days, starting on the first day of antigen inhalation.
Twenty-four hours after the final aerosol exposure, bronchoconstriction was measured by the overflow method of Konzett and Rōssler. […] Bronchoconstriction was recorded on a flatbed recorder (Model FBR-252A, TOA Electronics Ltd., Tokyo, Japan). […]

[3] = system: eosinophil infiltration to BALF; test: Eosinophil infiltration to bronchoalveolar lavage fluid (BALF) in OVA-immunized mice; assay type: in vivo; settings: OVA-immunized male BALB/c mice, intraperitoneally for 9 days, FIG. 2C
Description: as §1, §2
Immediately after the measurement of airway reactivity to acethycholine, BALF was collected by lavaging whole-lung three times with 0.7-ml aliquots of physiological saline containing 0.1% BSA via the tracheal cannula while gently massaging the thorax. The BALF recovered from one mouse was pooled, centrifuged, and the cells were resuspended in 100 μl saline containing 0.1% BSA. Cell numbers were determined using a hemocytometer and 2×10^4 cells were cytecetrifuged onto a glass slide. […]

## O=C(O)CCCN(CCCNC(=S)Nc1ccc(OCc2ccccc2)cc1)C1CCCc2ccccc21 (stereo not shown) [Compound 169]
CCR-3
  Ca^2+ mobilization 6.25 μg/ml (inhibition %): 48%

## O=C(O)CCCN(CCCNC(=O)Nc1ccc(Br)cc1)C1CCCc2ccccc21 (stereo not shown) [Compound 60, 4-[[3-(4-Bromophenylureido)propyl](1,2,3,4-tetrahydro-1-naphthyl)amino]butanoic acid]
[1]
  clinical score of collagen-induced arthritis: marked prevention in clinical score

## CC[N+](CCCNC(=O)Nc1ccccc1)(CCc1ccc(Cl)cc1)Cc1ccc(Cl)cc1.[I-] (stereo not shown) [Compound 298, [3-(Phenylureido)propyl][2(4-chlorophenyl)ethyl](4 chlorobenzyl)ethylammonium iodide]
[1]
  clinical score of collagen-induced arthritis: marked prevention in clinical score
[2]
  bronchoconstriction provoked by acetylcholine: Inhibition of bronchoconstriction
[3]
  eosinophil infiltration to bronchoalveolar lavage fluid (BALF): significantly suppressed eosinophil infiltration

## COc1ccc(NC(=S)NCCCN(CCCC(=O)O)C2CCCc3ccccc32)cc1 (stereo not shown) [Compound 168]
CCR-3
  Ca^2+ mobilization 6.25 μg/ml (inhibition %): 23%

## O=C(O)CCCN(CCCNC(=S)Nc1ccc(OC(F)(F)F)cc1)C1CCCc2ccccc21 (stereo not shown) [Compound 170]
CCR-3
  Ca^2+ mobilization 6.25 μg/ml (inhibition %): 45%
